Data on 11 compounds can be found in PMC12426930, “Antioxidant, Hypotensive, and Antidiabetic Breakthroughs: Bromelain Hydrolysis Unlocks Quinoa’s Peptide Potential - In Silico and In Vitro Approach” (Journal of Agricultural and Food Chemistry, 2025).

“And” between values parts separate entries of the source, which are not always exact repeats. Identical values can stand only once. “Also recorded” adds a separate entry of the source. Marks after values point to notes of the source that are not given here.

Assay [1] relates to angiotensin I converting enzyme. The assay is described as follows: ACE-I inhibitory activity (fluorometric kit CS0002). The conditions noted are these: for ACE-I inhibition: fluorometric kit, 37 °C, mean ± SD, n = 9. It is filed as biochemical. As for the experimental part:
ACE-I inhibitory assay was determined by ACE-I activity assay kit (fluorometric, CS0002). This assay is based on the hydrolysis of angiotensin I by ACE to yield angiotensin II. Briefly, all reagents were diluted in the assay buffer, and a total of 50 μL of peptide sample, positive control (captopril PHR1307), and assay buffer (blank) were added to a 96-well black plate. The standard was added at 0, 0.1, 0.2, 0.3, 0.4, 0.5, 0.6, and 0.8 nmol and adjusted to a final volume of 100 μL. […] Finally, fluorescence (λex, 320 nm; λem, 405 nm) was measured in five cycles for 5 min. Linear regressions were determined to calculate the enzymatic activity for each sample per concentration. Thus, one unit was defined as the amount of enzyme that releases 1 nmol of fluorescent substrate in 1 min at 37 °C. Finally, the inhibition (%) of each peptide and positive control was determined using regression analysis of the corresponding dose–response curves.

A further assay concerns ACE-I. The conditions noted are these: pearl garlic peptides; ref Yudho-Sutopo et al. [121]; read-out: ACE-I inhibition IC50; cited from earlier work. The text has this: Yudho-Sutopo et al. reported the ACE-I inhibitory activity of four synthetic peptides from pearl garlic (DHSTAVW, KLAKVF, KLSTAASF, and KETPEAHVF). […] According to Yudho-Sutopo et al., the hydrophobic amino acid in the C-terminal and amino acids with a positively charged side-chain amino group, like in DHSTAVW, are determinants in the inhibition of ACE-I. Furthermore, a study by Zheng et al. reported an ACE-I inhibitory peptide – RGQVIYVL – from Chenopo ...

In another assay the test system is LOX. The conditions noted are these: cited from earlier work; for anti-LOX activity (inhibition): 1 mg/mL, velvet antler blood peptides, ref Ding et al. [119]. The text has this:
Ding et al. evaluated eight peptides from velvet antler blood (LFP, FPH, EHF, VGYP, FSAL, LSQKFPK, HHGGEFTPV, and LKECCDKPV) for anti-LOX activity. […] Karas et al. reported six LOX-inhibitory peptides from millet grain (RLARAGLAQ, YGNPVGGVGH, EQGFLPGP ...

The test system of assay [2] is porcine pancreatic α-amylase (PPA). The assay is described as follows: α-Amylase inhibition. Type of assay: biochemical. The conditions noted are these: CNPG3 substrate, 405 nm, 37 °C, mean ± SD, n = 9. As for the experimental part:
α-Amylase inhibition activity was performed using the 3,5-dinitrosalicylic acid (DNS) assay according to Zulfiqar et al. […] Then, 50 μL of substrate (2-chloro-4-nitro-[…] (CNPG3) (2 mM)) was added per well. Finally, absorbance was recorded at 405 nm (SPARK-10M, TECAN, Switzerland) at 37 °C for 10 min in 1-min intervals. The percentage of enzyme inhibition was calculated in relation to 100% enzymatic activity in the negative control (phosphate-buffered saline (PBS) buffer, enzyme, and substrate).

The test system of assay [3] is rat intestinal acetone α-glucosidase. Briefly: α-Glucosidase inhibition. Type of assay: biochemical. The conditions noted are these: 2 mM maltose, pH 6.9, 37 °C, mean ± SD, n = 9. As for the experimental part: α-Glucosidase inhibition assay was measured following the method of Vilcacundo et al., with slightly modifications. First, 100 μL of sample ([…]), positive control (1 mM acarbose), and/or negative control (Milli-Q-water), were added to 50 μL of rat intestinal acetone α-glucosidase (1 U/mL in 0.1 M, maleate buffer pH 6.9), and the mixture was incubated at 37 °C for 5 min. Then, 50 μL of substrate (2 mM maltose) was added into each tube, which was performed in a Thermomixer (37 °C, 1000 rpm, for 30 min). Finally, the reaction was stopped at 100 °C for 5 min. The glucose concentration in the reaction was measured using GOPOD (glucose oxidase/peroxidase) from Megazyme, with absorbance measured at 560 nm (Gen5 software, version 1.1, BioTek Instruments, Winooski, VT, USA). The percentage of inhibition was calculated relative to the non-inhibited control (negative control).

The next assay concerns human DPP-IV. Briefly: DPP-IV inhibitory activity. The following applies: H-Gly-Pro-pNA, 37 °C, mean ± SD, n = 9. Type of assay: biochemical. As for the experimental part:
Dipeptidyl peptidase-IV (DPP-IV) inhibitory activity was measured following the method by Vilcacundo et al., with slightly modifications. […] For the negative control 70 μL of Tris Buffer was added. Finally, 100 μL of substrate (H-Gly-Pro-pNA, 100 mM) was added to all wells. The reaction was performed at 37 °C in the microplate reader (BioTek Instruments, Winooski, VT, USA), and the reaction was read at 405 nm for 30 min, with reading intervals of 2 min. Finally, data were plotted and fitted to a logarithmic regression to obtain dose–response curves.

For assay [4], the system named is 15-LOX enzyme (soybean lipoxygenase). The assay is described as follows: Lipoxygenase inhibitor screening assay (LOX). It is filed as biochemical. The conditions noted are these: 31.25 μM; linoleic acid 1 mM, RT, 490 nm. As for the experimental part: Lipoxygenase inhibitory activity assay (LOX) was determined following the manufacturer’s instructions (#760700). Thus, peptide concentrations (31.25–125 μM) were prepared with the assay buffer and tested in triplicate. First, 10 μL of the peptides at each concentration was mixed with 90 μL of 15-LOX enzyme (soybean lipoxygenase) in a 96-well plate. Then, three wells each contained assay buffer as blank (without enzyme), assay buffer as vehicle (with enzyme), and 15-LOX as positive control. Afterward, 10 μL of linoleic acid (1 mM) (substrate) was added to all wells and shaken for 10 min at RT. Finally, 100 μL of chromogen was added to all wells, and the plate was sealed and shaken for an additional 5 min at RT. The final reaction was measured at 490 nm, and the percentage of inhibition was calculated as. %inhibition=[1−Correctedvaluesofpeptide/Correctedvaluesofvehicle]×100

A further assay is described as follows: Fe^2+ chelation assay. The conditions noted are these: 125 μM; ferrozine, pH 4.9, 37 °C, 10 min; mean ± SD, n = 9. As for the experimental part:
Fe^2+ chelation assay was measured according to Sanchez-Velazquez et al. with slightly modifications. 25 μL of sample (synthetic peptides, […]) or positive control (EDTA, 0.1 μg/μL) was added to 225 μL of buffer (sodium acetate, 100 mM, pH 4.9), then 15 μL of iron solution (0.1%, w/v) and 9 μL of ferrozine (40 mM) were added to start the reaction. For the blank well, 250 μL of buffer was added to the iron solution and ferrozine. The reaction was incubated 10 min at 37 °C and then read at 562 nm (SPARK-10M, TECAN, Switzerland). Fe^2+ chelating activity was calculated as described previously for copper.

Assay [5] in a line: Trolox equivalent antioxidant capacity (TEAC, ABTS radical cation). The conditions noted are these: 734 nm, 6 min, mean ± SD, n = 9. As for the experimental part: The Trolox equivalent antioxidant capacity (TEAC) analysis was performed as described by Sanchez-Velazquez et al. In order to produce ABTS (2,2’-azino-bis(3-ethylbenzthiazoline-6-sulfonic acid) radical cation (ABTS^ ●+ ), ABTS (7 mM) were mixed with potassium persulfate (2.45 mM) in the dark at room temperature (RT 18–21 °C) for 16 h. […] Finally, the reaction was measured at 0 and 6 min at 734 nm (SPARK-10M, TECAN, Switzerland). The percentage of inhibition was calculated as follows: %TEACinhibition=Abs sample0min−Abs sample6min/Abs sample0min−(Abs blank0min−Abs blank6min/Abs blank0min)×100

A short description of assay [6]: Oxygen radical absorbance capacity (ORAC) assay. The conditions noted are these: AAPH, fluorescein, 37 °C, 150 min. As for the experimental part:
Oxygen radical absorbance capacity (ORAC) assay was performed following the method of Carvalho-Oliveira et al. Briefly, 30 μL of peptide (different concentrations 50–1000 μM) or standard (Trolox at 0–160 μM) were placed in a black 96-well plate. The reaction mixture comprised 180 μL of fluorescein (116.9 nM) and 90 μL of 2,2’-azobis(2-amidinopropane) dihydrochloride (AAPH) (40 mM). Finally, the fluorescence was recorded every 2 min for 150 min at excitation and emission wavelengths of 485 and 520 nm, respectively. All reactions were performed at 37 °C. The results were expressed as μmol Trolox equivalent (TE)/μmol of peptide. Quantification and interpretation of the data were done by Gen5 software, version 1.1 (BioTek Instruments, Winooski, VT, USA).

In the case of `C[C@H](CS)C(=O)N1CCC[C@H]1C(=O)O` [commercial ACE-I inhibitor, reference compound], the “ACE-I inhibition, reference inhibitor” value in assay [1] (50 µM) is 80.1%.
Regarding “DHSTAVW [synthetic peptide from pearl garlic, Yudho-Sutopo et al]”, the IC50 (commonly the concentration at which inhibition is half-maximal) with ACE-I was 2.8 µM.
Take GQLGEHGGAGMG: the LOX inhibition in the assay on LOX (millet grain peptides, ref Karas et al. [120]) is 50%.
Regarding “HHGGEFTPV [peptide from velvet antler blood, Ding et al]”, the “anti-LOX activity (inhibition)” value in the assay on LOX is recorded as no more than 12%.
For “KETPEAHVF [synthetic peptide from pearl garlic, Yudho-Sutopo et al]”, the IC50 with ACE-I is 455 µM.
In the case of “KLAKVF [synthetic peptide from pearl garlic, Yudho-Sutopo et al]”, the concentration for half-maximal inhibition (IC50) in the assay with ACE-I is 77.2 µM.
In the case of “KLSTAASF [synthetic peptide from pearl garlic, Yudho-Sutopo et al]”, the IC50 in the assay with ACE-I is 172 µM.
For the compound “LKECCDKPV [peptide from velvet antler blood, Ding et al]”, the “anti-LOX activity (inhibition)” value in the assay on LOX is on record as no more than 12%.
Take “LSQKFPK [peptide from velvet antler blood, Ding et al]”: the “anti-LOX activity (inhibition)” value in the assay on LOX was no more than 12%.
Turning to “NIYQIS [quinoa 11S globulin peptide, custom-synthesized by GenScript, purity 95%]”, the α-amylase inhibition entry is on record as “ND (no inhibitory effect was observed at the given concentration)” in [2] (300 μM), “ND (no inhibitory effect was observed at the given concentration)” in [2] (400 μM) and “did not show significant α-amylase inhibition; also recorded: ND (no inhibitory effect was observed at the given concentration)” in assay [2] (500 μM). The values for the ACE-I inhibition in [1] (125 μM), in assay [1] (250 μM) and in assay [1] (500 μM) were 17.20 ± 0.28^d %, 31.7 ± 2.40^b % and 53.0 ± 1.41^a %, respectively. For the same compound, the α-glucosidase inhibition in assay [3] (300 μM) is listed as 7.72 ± 0.95^c %; in assay [3] (500 μM) it was 11.93 ± 0.92^b %. Moreover, the inhibition (commonly how much of the control response was suppressed) in assay [3] (400 μM) was 10.4 ± 0.93%. Also, the DPP-IV inhibition result is on record as “ND (no inhibitory effect was observed at the given concentration)” in the assay on human DPP-IV (125 μM), 12.22 ± 0.50^b % in the assay on human DPP-IV (250 μM) and 16.36 ± 0.70^a % in the assay on human DPP-IV (500 μM). The compound further displayed an LOX inhibition in [4] of 16.20%. The “Fe^2+ chelating activity” value in “Fe^2+ chelation assay” is given as 9.04 ± 0.96%. For the same compound, the “TEAC inhibition (ABTS^●+ inhibition)” value in assay [5] (125 μM) amounted to 7.87 ± 0.10%; in assay [5] (250 μM) it was 7.39 ± 0.19%; in assay [5] (500 μM), 8.19 ± 0.38%. In addition, the ORAC in assay [6] is 0.75 μmol TE/μmol peptide; in [6] (mean ± SD, n = 9) it was 0.75 μM TE/μM Peptide and 0.75 ± 0.02^a μM TE/μM Peptide.
Regarding “VGYP [peptide from velvet antler blood, Ding et al]”, the “anti-LOX activity (inhibition)” value in the assay with LOX is given as no more than 12%.
